Results published in publication PMC12454493, “Insight on novel sulfamoylphenyl pyrazole derivatives as anticancer carbonic anhydrase inhibitors” (Molecular Diversity, 2024).

Columns and labels:
CCRF-CEM = assay: NCI-60 one-dose SRB screen (Leukemia); format: cell-based; conditions: Homo sapiens, single dose 10 µM, 48 h, read-out: Growth inhibition percent (GI %)
HL-60(TB) = assay: NCI-60 one-dose SRB screen (Leukemia); format: cell-based; conditions: Homo sapiens, single dose 10 µM, 48 h, read-out: Growth inhibition percent (GI %)
K-562 = assay: NCI-60 one-dose SRB screen (Leukemia); format: cell-based; conditions: Homo sapiens, K562, single dose 10 µM, 48 h, read-out: Growth inhibition percent (GI %)
MOLT-4 = assay: NCI-60 one-dose SRB screen (Leukemia); format: cell-based; conditions: Homo sapiens, single dose 10 µM, 48 h, read-out: Growth inhibition percent (GI %)
RPMI-8226 = assay: NCI-60 one-dose SRB screen (Leukemia); format: cell-based; conditions: Homo sapiens, single dose 10 µM, 48 h, read-out: Growth inhibition percent (GI %)
A549/ATCC = assay: NCI-60 one-dose SRB screen (Non-Small Cell Lung Cancer); format: cell-based; conditions: Homo sapiens, single dose 10 µM, 48 h, read-out: Growth inhibition percent (GI %)
EKVX = assay: as above; format: cell-based; conditions: Homo sapiens, single dose 10 µM, 48 h, read-out: Growth inhibition percent (GI %)
HOP-62 = assay: as above; format: cell-based; conditions: Homo sapiens, single dose 10 µM, 48 h, read-out: Growth inhibition percent (GI %)
HOP-92 = assay: as above; format: cell-based; conditions: Homo sapiens, single dose 10 µM, 48 h, read-out: Growth inhibition percent (GI %)
NCI-H226 = assay: as above; format: cell-based; conditions: Homo sapiens, single dose 10 µM, 48 h, read-out: Growth inhibition percent (GI %)
NCI-H23 = assay: as above; format: cell-based; conditions: Homo sapiens, single dose 10 µM, 48 h, read-out: Growth inhibition percent (GI %)
NCI-H322M = assay: as above; format: cell-based; conditions: Homo sapiens, single dose 10 µM, 48 h, read-out: Growth inhibition percent (GI %)
NCI-H460 = assay: as above; format: cell-based; conditions: Homo sapiens, single dose 10 µM, 48 h, read-out: Growth inhibition percent (GI %)
NCI-H522 = assay: as above; format: cell-based; conditions: Homo sapiens, single dose 10 µM, 48 h, read-out: Growth inhibition percent (GI %)
SF-268 = assay: NCI-60 one-dose SRB screen (CNS Cancer); format: cell-based; conditions: Homo sapiens, single dose 10 µM, 48 h, read-out: Growth inhibition percent (GI %)
SF-295 = assay: NCI-60 one-dose SRB screen (CNS Cancer); format: cell-based; conditions: Homo sapiens, single dose 10 µM, 48 h, read-out: Growth inhibition percent (GI %)
SF-539 = assay: NCI-60 one-dose SRB screen (CNS Cancer); format: cell-based; conditions: Homo sapiens, single dose 10 µM, 48 h, read-out: Growth inhibition percent (GI %)
SNB-19 = assay: NCI-60 one-dose SRB screen (CNS Cancer); format: cell-based; conditions: Homo sapiens, single dose 10 µM, 48 h, read-out: Growth inhibition percent (GI %)
SNB-75 = assay: NCI-60 one-dose SRB screen (CNS Cancer); format: cell-based; conditions: Homo sapiens, single dose 10 µM, 48 h, read-out: Growth inhibition percent (GI %)
U251 = assay: NCI-60 one-dose SRB screen (CNS Cancer); format: cell-based; conditions: Homo sapiens, U-251, single dose 10 µM, 48 h, read-out: Growth inhibition percent (GI %)
LOX IMVI = assay: NCI-60 one-dose SRB screen (Melanoma); format: cell-based; conditions: Homo sapiens, single dose 10 µM, 48 h, read-out: Growth inhibition percent (GI %)
M14 = assay: NCI-60 one-dose SRB screen (Melanoma); format: cell-based; conditions: Homo sapiens, single dose 10 µM, 48 h, read-out: Growth inhibition percent (GI %)
MALME-3M = assay: NCI-60 one-dose SRB screen (Melanoma); format: cell-based; conditions: Homo sapiens, single dose 10 µM, 48 h, read-out: Growth inhibition percent (GI %)
MDA-MB-435 = assay: NCI-60 one-dose SRB screen (Melanoma); format: cell-based; conditions: Homo sapiens, single dose 10 µM, 48 h, read-out: Growth inhibition percent (GI %)
SK-MEL-28 = assay: NCI-60 one-dose SRB screen (Melanoma); format: cell-based; conditions: Homo sapiens, single dose 10 µM, 48 h, read-out: Growth inhibition percent (GI %)
SK-MEL-2 = assay: NCI-60 one-dose SRB screen (Melanoma); format: cell-based; conditions: Homo sapiens, single dose 10 µM, 48 h, read-out: Growth inhibition percent (GI %)
SK-MEL-5 = assay: NCI-60 one-dose SRB screen (Melanoma); format: cell-based; conditions: Homo sapiens, single dose 10 µM, 48 h, read-out: Growth inhibition percent (GI %)
UACC-257 = assay: NCI-60 one-dose SRB screen (Melanoma); format: cell-based; conditions: Homo sapiens, single dose 10 µM, 48 h, read-out: Growth inhibition percent (GI %)
UACC-62 = assay: NCI-60 one-dose SRB screen (Melanoma); format: cell-based; conditions: Homo sapiens, single dose 10 µM, 48 h, read-out: Growth inhibition percent (GI %)
IGROV1 = assay: NCI-60 one-dose SRB screen (Ovarian cancer); format: cell-based; conditions: Homo sapiens, IGROV-1, single dose 10 µM, 48 h, read-out: Growth inhibition percent (GI %)
NCI/ADR-RES = assay: NCI-60 one-dose SRB screen (Ovarian cancer); format: cell-based; conditions: Homo sapiens, single dose 10 µM, 48 h, read-out: Growth inhibition percent (GI %)
OVCAR-3 = assay: NCI-60 one-dose SRB screen (Ovarian cancer); format: cell-based; conditions: Homo sapiens, single dose 10 µM, 48 h, read-out: Growth inhibition percent (GI %)
OVCAR-4 = assay: NCI-60 one-dose SRB screen (Ovarian cancer); format: cell-based; conditions: Homo sapiens, single dose 10 µM, 48 h, read-out: Growth inhibition percent (GI %)
OVCAR-5 = assay: NCI-60 one-dose SRB screen (Ovarian cancer); format: cell-based; conditions: Homo sapiens, single dose 10 µM, 48 h, read-out: Growth inhibition percent (GI %)
OVCAR-8 = assay: NCI-60 one-dose SRB screen (Ovarian cancer); format: cell-based; conditions: Homo sapiens, single dose 10 µM, 48 h, read-out: Growth inhibition percent (GI %)
SK-OV-3 = assay: NCI-60 one-dose SRB screen (Ovarian cancer); format: cell-based; conditions: Homo sapiens, single dose 10 µM, 48 h, read-out: Growth inhibition percent (GI %)
DU-145 = assay: NCI-60 one-dose SRB screen (Prostate Cancer); format: cell-based; conditions: Homo sapiens, single dose 10 µM, 48 h, read-out: Growth inhibition percent (GI %)
PC-3 = assay: NCI-60 one-dose SRB screen (Prostate Cancer); format: cell-based; conditions: Homo sapiens, single dose 10 µM, 48 h, read-out: Growth inhibition percent (GI %)
BT-549 = assay: NCI-60 one-dose SRB screen (Breast Cancer); format: cell-based; conditions: Homo sapiens, single dose 10 µM, 48 h, read-out: Growth inhibition percent (GI %)
HS 578T = assay: NCI-60 one-dose SRB screen (Breast Cancer); format: cell-based; conditions: Homo sapiens, single dose 10 µM, 48 h, read-out: Growth inhibition percent (GI %)
MCF-7 = assay: NCI-60 one-dose SRB screen (Breast Cancer); format: cell-based; conditions: Homo sapiens, MCF7, single dose 10 µM, 48 h, read-out: Growth inhibition percent (GI %)
MDA-MB-231/ATCC = assay: NCI-60 one-dose SRB screen (Breast Cancer); format: cell-based; conditions: Homo sapiens, single dose 10 µM, 48 h, read-out: Growth inhibition percent (GI %)
MDA-MB-468 = assay: NCI-60 one-dose SRB screen (Breast Cancer); format: cell-based; conditions: Homo sapiens, single dose 10 µM, 48 h, read-out: Growth inhibition percent (GI %)
T-47D = assay: NCI-60 one-dose SRB screen (Breast Cancer); format: cell-based; conditions: Homo sapiens, T47D, single dose 10 µM, 48 h, read-out: Growth inhibition percent (GI %)
hCA IX = hCA IX (Homo sapiens, UniProt Q16790); assay: CA inhibitory activity, spectrophotometric p-NPA assay; format: biochemical; conditions: p-NPA substrate, pH 7.5, 25 °C, triplicate; read-out: IC50 (µM) ± SD hCA IX
Experimental: The software used to calculate CA IC50 along with statistical analysis of the results is GraphPad Prism 9.00. Results were estimated by using one-way ANOVA and the Bonferroni’s multiple comparisons posthoc test was performed (P < 0.05) [46]
Carbonic anhydrase inhibitory activity:
The spectrophotometric assay was conducted in HEPES-Tris buffer, NaCl of pH 7.5 (20mM) at 25◦C. Each inhibitory well-consisted of 50 μL of assay buffer solution, 20 μL of hCA enzyme solution (20 ng/μL in Assay Buffer), and 50 μL of test compound in HPLC grade DMSO (maintain 10% of the final concentration). The mixture solution was
Substrate p-nitrophenyl acetate (p-NPA) (0.7mM) was prepared in HPLC grade methanol and the reaction was started by adding 20 μL to a well in a 96-well-plate. The amount of product formed was measured for 30 min continuously at 1 min intervals at 400 nm in a 96-well-plate using xMARK microplate spectrophotometer, Bio-Rad (USA). The activity of the controlled compound was taken as 100%. All experiments were carried out in triplicates of each used concentration, and results are represented as a

NS(=O)(=O)c1ccc(-n2cc(C(=O)OCC(=O)Nc3nnc(S(N)(=O)=O)s3)c(-c3ccccc3)n2)cc1 [Compound 6a, 2-Oxo-2-[(5-sulfamoyl-1,3,4-thiadiazol-2-yl)amino] ethyl 3-phenyl-1-(4-sulfamoylphenyl)-1H-pyrazole-4-carboxylate]
inhibition at 10 µM (CCRF-CEM): < 5% | inhibition at 10 µM (HL-60(TB)): < 5% | inhibition at 10 µM (K-562): < 5% | inhibition at 10 µM (MOLT-4): < 5% | inhibition at 10 µM (RPMI-8226): < 5% | inhibition at 10 µM (A549/ATCC): < 5% | inhibition at 10 µM (EKVX): 9.86% | inhibition at 10 µM (HOP-62): < 5% | inhibition at 10 µM (HOP-92): < 5% | inhibition at 10 µM (NCI-H226): 16.2% | inhibition at 10 µM (NCI-H23): < 5% | inhibition at 10 µM (NCI-H322M): < 5% | inhibition at 10 µM (NCI-H460): < 5% | inhibition at 10 µM (NCI-H522): 13.3% | inhibition at 10 µM (SF-268): < 5% | inhibition at 10 µM (SF-295): < 5% | inhibition at 10 µM (SF-539): < 5% | inhibition at 10 µM (SNB-19): 6.91% | inhibition at 10 µM (SNB-75): 5.39% | inhibition at 10 µM (U251): < 5% | inhibition at 10 µM (LOX IMVI): 8.67% | inhibition at 10 µM (M14): < 5% | inhibition at 10 µM (MALME-3M): < 5% | inhibition at 10 µM (MDA-MB-435): < 5% | inhibition at 10 µM (SK-MEL-28): < 5% | inhibition at 10 µM (SK-MEL-2): < 5% | inhibition at 10 µM (SK-MEL-5): < 5% | inhibition at 10 µM (UACC-257): < 5% | inhibition at 10 µM (UACC-62): 17.7% | inhibition at 10 µM (IGROV1): < 5% | inhibition at 10 µM (NCI/ADR-RES): < 5% | inhibition at 10 µM (OVCAR-3): < 5% | inhibition at 10 µM (OVCAR-4): < 5% | inhibition at 10 µM (OVCAR-5): < 5% | inhibition at 10 µM (OVCAR-8): < 5% | inhibition at 10 µM (SK-OV-3): 54.6% | inhibition at 10 µM (DU-145): < 5% | inhibition at 10 µM (PC-3): < 5% | inhibition at 10 µM (BT-549): < 5% | inhibition at 10 µM (HS 578T): 5.52% | inhibition at 10 µM (MCF-7): 22.6% | inhibition at 10 µM (MDA-MB-231/ATCC): 9.95% | inhibition at 10 µM (MDA-MB-468): < 5% | inhibition at 10 µM (T-47D): < 5% | IC50 (hCA IX): 0.591 ± 0.028 µM | melting point: 135 to 137 °C

Cc1ccc(-c2nn(-c3ccc(S(N)(=O)=O)cc3)cc2-c2n[nH]c(=S)[nH]2)cc1 [Compound 11, 4-[4-(5-Mercapto-1H-1,2,4-triazol-3-yl)-3-(p-tolyl)-1H-pyrazol-1-yl] benzenesulfonamide]
inhibition at 10 µM (CCRF-CEM): < 5% | inhibition at 10 µM (HL-60(TB)): < 5% | inhibition at 10 µM (K-562): < 5% | inhibition at 10 µM (MOLT-4): 21.1% | inhibition at 10 µM (RPMI-8226): < 5% | inhibition at 10 µM (A549/ATCC): < 5% | inhibition at 10 µM (EKVX): < 5% | inhibition at 10 µM (HOP-62): < 5% | inhibition at 10 µM (HOP-92): < 5% | inhibition at 10 µM (NCI-H226): < 5% | inhibition at 10 µM (NCI-H23): < 5% | inhibition at 10 µM (NCI-H322M): < 5% | inhibition at 10 µM (NCI-H460): < 5% | inhibition at 10 µM (NCI-H522): < 5% | inhibition at 10 µM (SF-268): 9.56% | inhibition at 10 µM (SF-295): 9.95% | inhibition at 10 µM (SF-539): 8.18% | inhibition at 10 µM (SNB-19): 13% | inhibition at 10 µM (SNB-75): 23.9% | inhibition at 10 µM (U251): 5.33% | inhibition at 10 µM (LOX IMVI): 13.5% | inhibition at 10 µM (M14): < 5% | inhibition at 10 µM (MALME-3M): < 5% | inhibition at 10 µM (MDA-MB-435): < 5% | inhibition at 10 µM (SK-MEL-28): < 5% | inhibition at 10 µM (SK-MEL-2): < 5% | inhibition at 10 µM (SK-MEL-5): < 5% | inhibition at 10 µM (UACC-257): < 5% | inhibition at 10 µM (UACC-62): 12.9% | inhibition at 10 µM (IGROV1): < 5% | inhibition at 10 µM (NCI/ADR-RES): < 5% | inhibition at 10 µM (OVCAR-3): 11.4% | inhibition at 10 µM (OVCAR-4): 10.1% | inhibition at 10 µM (OVCAR-5): < 5% | inhibition at 10 µM (OVCAR-8): < 5% | inhibition at 10 µM (SK-OV-3): < 5% | inhibition at 10 µM (DU-145): < 5% | inhibition at 10 µM (PC-3): < 5% | inhibition at 10 µM (BT-549): < 5% | inhibition at 10 µM (HS 578T): < 5% | inhibition at 10 µM (MCF-7): 6.49% | inhibition at 10 µM (MDA-MB-231/ATCC): < 5% | inhibition at 10 µM (MDA-MB-468): < 5% | inhibition at 10 µM (T-47D): 21.2% | IC50 (hCA IX): 0.24 ± 0.011 µM | melting point: 255 to 257 °C
